{
  "source": "patent US20220400729A1",
  "about": "“SYNERGISTIC COMBINATION OF BUTYRIC-ACID-PRODUCING PREBIOTICS AND PROBIOTICS” (INNER MONGOLIA YILI INDUSTRIAL GROUP CO., LTD, priority 2019, published 2022)",
  "system": "Bifidobacterium lactis HNO19",
  "assay": "Growth test of Bifidobacterium lactis HNO19: organic acids in culture broth by HPLC",
  "type": "cell-based",
  "details": "HNO19 in MRS+0.05% cysteine medium with 1% carbon source, HPLC at 12 hours",
  "protocol": "Bifidobacterium lactis HNO19 was purchased from Danisco. The strain was cultured in de Man Rogosa Sharpe (MRS) broth (Difco, Detroit, Md.) supplemented with 0.5 g/LL-cysteine and incubated for 24 h at 37° C. under anaerobic conditions. […] After the second passage, the culture was prepared for use as inoculum for the growth tests described below. Various carbon source stock solutions were sterilized by passing through 0.22 micron filters and used at 1% final concentration. […] The contents of lactic acid, acetic acid, propionic acid and butyric acid in the above-mentioned various combined culture broths were measured by high performance liquid chromatography (HPLC) at 12 hours.",
  "data": [
    {"smiles": "OC[C@H]1O[C@@H](O[C@@H]2[C@@H](CO)O[C@](O)(CO)[C@H]2O)[C@H](O)[C@@H](O)[C@H]1O", "note": "[LOS, 4-O-β-D-galactopyranosyl-4-D-fructose]", "values": [
      {"measurement": "Contents of organic acids in the culture medium: Acetic acid", "result": "0.238 ± 0.002"},
      {"measurement": "Contents of organic acids in the culture medium: Lactic acid", "result": "0.034 ± 0.002"},
      {"measurement": "Contents of organic acids in the culture medium: Total amount of organic acid", "result": "0.272 ± 0.004"}
    ]}
  ]
}
